# Tests used:
# Format in all cases: cell-based, mouse
# [1] = tested on: NIH3T3/v-Src; assay: TUNEL analysis of apoptosis
# Source text: (§1) FIGS. 7A-7C. TUNEL analysis of PLATINUM-401-mediated apoptosis. (FIG. 7A) Normal NIH3T3 fibroblasts and their v-Src-transformed counterparts (NIH3T3/v-Src), human breast carcinoma cell lines (MDA-MB-453, MDA-MB-435, MDA-MB-468, and MDA-MB-231), human non-small cell lung cancer cell line (A549), human prostate cancer cell line (DU145), multiple myeloma 5TGM1 (mouse) and U266 (human) cell lines, mouse melanoma cell line (B16) and human pancreatic cancer cell line (Panc1) were all treated with or without PLATINUM-401 for 48 h and analyzed by TUNEL for DNA damage. For each cell line, the activated Stat3 status is indicated as (−), no constitutively-active Stat3 and (+), constitutively-active Stat3 (see FIG. 5A). Data are representative of 3 independent determinations; (FIG. 7B) Human breast cancer cell lines (MDA-MB-453, MDA-MB-468 and MDA-MB-435) were transfected with or without Stat3β or Stat3 antisense (Stat3AS), or were treated with or without Stat3 peptidomimetic inhibitor, ISS 610 (1 mM) or PLATINUM-401 (5 μM)). Forty-eight hours afterwards, cells were harvested and processed for TUNEL analysis; (FIG. 7C) The viral Src-transformed NIH3T3/v-Src fibroblasts were transfected with or without wild-type Stat3 (pRc/CMV Stat3 Flag) and treated with or without 5 μM PLATINUM-401 for 36 h. Cells were subsequently harvested for nuclear extracts preparation and Stat3 DNA-binding assay in vitro with EMSA analysis (left panel), or were processed for TUNEL analysis (right panel).
# (§2) Cell proliferation and TUNEL assays—Proliferating cells were first treated with or without PLATINUM-401 for up to 48 h. A portion of cells were harvested for BrdU incorporation following the manufacturer's (BD Biosciences Pharmingen, San Diego, Calif.) instructions and analyzed by flow cytometry. Harvested cells were also analyzed for apoptosis via detection of TdT-mediated dUTP nick-end labeling (TUNEL) assay using Apoptosis Detection Systems Fluorescein according to the manufacturer's (Roche, Indianapolis, Ind.) instructions. Oligonucleotides and plasmids Transfections. The Stat3 antisense (5′-[…]-3′) (SEQ ID NO:3) or control mismatch oligonucleotides (5′-[…]-3′) (SEQ ID NO:4) were synthesized using phosphorothioate chemistry and were synthesized with 2′-Omethoxyethyl modification of the five terminal nucleotides (underlined; (Mora et al., 2002; Karras et al., 2000)) to increase stability. Transfections of Stat3AS and plasmids were carried out with Lipofectamine 2000 (LF) according to the manufacturer's instructions (Invitrogen, Carlsbad, Calif.). Briefly, cells were seeded at 1-2×10^6 cells/10-cm tissue-culture plates 18 h before transfection. Immediately before transfection, cells were washed once with PBS. Cells were transfected with luciferase reporters (4 μg) in the presence or absence of v-Src (4 μg), or were transfected with Stat3β (4 μg) or pRC/CMV Stat3 Flag (4 μg). Stat3AS transfections were carried out LF alone, or with LF/Stat3 antisense oligonucleotides, or LF/Stat3 mismatch oligonucleotides (final concentration of the oligonucleotides was 250 nM). After 2-3 h, the transfection medium was aspirated and cells washed with PBS before fresh medium added containing 10% FBS was added.
# (§3) Cells were analyzed for DNA-strand breaks by TUNEL staining. […] The incidence of apoptosis correlated with the prevalence of constitutively-active Stat3 in malignant cells (FIG. 7, lower panel). […]
# [2] = tested on: 5TGM1; assay: TUNEL analysis of apoptosis; conditions: 48 h
# Source text: as §1, §2, §3
# [3] = tested on: NIH3T3; assay: TUNEL analysis of apoptosis; conditions: 48 h, no aberrant Stat3 activity
# Source text: as §1, §2, §3
# [4] = tested on: B16; assay: TUNEL analysis of apoptosis; conditions: 48 h
# Source text: as §1, §2, §3
# [5] = tested on: normal NIH 3T3 fibroblasts; assay: Ki67 proliferation index by immunohistochemistry; conditions: no persistent Stat3 activity
# Method: FIGS. 5A and 5B. Evaluation for effects of PLATINUM-401 on cellular constitutive Stat3 activation and cell proliferation. Normal or malignant cells were treated with or without PLATINUM-401 and nuclear extracts were prepared for Stat3 DNA-binding activity assay with hSIE probe, or cells were processed for nuclear Ki67 immunohistochemistry. (FIG. 5A) EMSA analysis of Stat3 DNA-binding activity; (FIG. 5B) Graphical representations of quantified nuclear staining of Ki-67 proliferation index. Stat3:Stat3-DNA complexes in gels are labeled. The Ki-67 proliferation indexes were calculated as the percent positive tumor cells relative to the total number of cells. […]
# Immunohistochemistry—The indirect peroxidase-antiperoxidase test was performed on cytospins prepared from cell lines (control and treated). […] The presence of Ki-67 nuclear staining was calculated as percent positive tumor cells in relation to the total number of cells.
# The inventors further examined the biological effects of PLATINUM-401 and determined whether any changes might correlate with the inhibition of constitutively-active Stat3. […]
# Changes in cell proliferation induced by treatment with PLATINUM-401 were assayed in terms of Ki67 proliferation index by immunohistochemistry. The presence of Ki-67 nuclear staining was calculated as the percent positive tumor cells in relation to the total number of cells.
structure (smiles),measurement,setting,value
CC(O)CN1CCN(CC(C)O)CC1 (stereo not drawn) [PLATINUM-401],TUNEL staining,[1]; 48 h,Significant TUNEL staining
same,compound-mediated apoptosis on overexpression of Stat3,"[1]; NIH3T3/v-Src transfected with wild-type Stat3, 5 μM, 36 h",minimizes the extent
same,TUNEL staining,[2],Significant TUNEL staining
same,TUNEL staining,[3],no TUNEL staining
same,TUNEL staining,[4],Significant TUNEL staining
same,proliferation (Ki67 index),[5],lack of effect

# Reference: patent US11571418B2, “Platinum compounds that inhibit constitutive STAT3 signaling and induce cell cycle arrest and apoptosis of malignant cells” (H. LEE MOFFITT CANCER CENTER AND RESEARCH INSTITUTE, INC., priority 2011, dated 2023)
